The source of these data is patent publication US20210030703A1, “USE OF CALORIC RESTRICTION MIMETICS FOR POTENTIATING CHEMO-IMMUNOTHERAPY FOR THE TREATMENT OF CANCERS” (INSERM (INSTITUT NATIONAL DE LA SANTÉ ET DE LA RECHERCHE …, priority 2018, published 2021).

The conditions of test [1]: background, reference (9); cited from earlier work.
Test [2] concerns MCA205 fibrosarcoma. Kind of test: Subcutaneous MCA205 fibrosarcoma: tumor growth, cure and survival under chemo-immunotherapy. It is filed as in vivo, C57B1/6 mice.
The subject of a further test is TC1 lung carcinoma cells. Kind of test: Rechallenge of cured mice with antigenically unrelated TC1 cells in the contralateral flank. It is filed as in vivo, C57B1/6 mice. The following applies: mice cured from MCA205 following MTX+ICIs+Spd treatment (FIG. 4G). How it is done:
(§1) In vivo experimentations. Tumor engraftment was performed through subcutaneous injection of 3×10^5 MCA205 fibrosarcoma tumor cells (in 100 μl PBS) in the right flank of the mice. […] Tumor size was carefully monitored up to 50 days post-MTX. Antitumor immunity induced by the treatment in cured mice was challenged by subcutaneously re-engrafting the same tumor (3×10^5 syngeneic MCA205 fibrosarcoma cells) in one flank while an antigenically unrelated cancer (3×10^5 syngeneic TC1 lung carcinoma cells) was implanted into the contralateral flank.

The test system of another test is whole MCA205 tumors. Description: RNA-seq analyses of whole tumors. The format is in vivo, C57B1/6 mice. The following applies: day 3 post-chemotherapy (MTX); data not shown.
In test [3] the test system is MCA205 fibrosarcoma. Kind of test: Subcutaneous MCA205 fibrosarcoma: tumor growth, cure and survival under chemo-immunotherapy. The conditions noted are these: for Efficacy of MTX + ICIs (anti-PD-1 plus anti-CTLA-4) chemo-immunotherapy when the CRM is added: figure legends FIG. 2, 3, 4, 6. The format is in vivo, C57B1/6 mice. On the procedure:
Mouse strain and housing. Six- to 8-week-old wild-type female C57B1/6 mice were obtained from Envigo RMS SARL (Gannat, France). Animals were maintained in specific pathogen-free conditions in a temperature-controlled environment with 12 h light, 12 h dark cycles and received food and water ad libitum (unless precised otherwise). Animal experiments were in compliance with the EU Directive 63/2010 and approved by the Ethical Committee of the Cordeliers Research Center (Paris, France). All mouse experiments were randomized and blinded, and sample sizes were calculated to detect a statistically significant effect.
In vivo experimentations. Tumor engraftment was performed through subcutaneous injection of 3×10^5 MCA205 fibrosarcoma tumor cells (in 100 μl PBS) in the right flank of the mice. Tumor volume was monitored using a digital caliper and calculated according to the formula: volume=length×width×height/8×4/3 pi. When tumor reached 20 mm^3 on average, mice underwent fasting (48 hours without food but ad libitum access to water) or were given caloric restriction mimetics (CRMs) such as aspirin (Asp; 10 mg/kg i.p. in 200 μl phosphate buffered saline [PBS] five times per week), hydroxycitrate (HC; 5 mg/ml in drinking water daily) or spermidine (Spd; 50 mg/kg i.p. in 200 μl Earle's balanced salt solution three times per week), or were treated with mitoxantrone (MTX; 5.17 mg/kg i.p. in 200 μl PBS), or with the immune checkpoint inhibitors (ICIs) anti-PD-1 (10 mg/kg i.p. in 200 μl PBS) and/or anti-CTLA-4 (5 mg/kg i.p. in 200 μl PBS). Tumor size was carefully monitored up to 50 days post-MTX. Antitumor immunity induced by the treatment in cured mice was challenged by subcutaneously re-engrafting the same tumor (3×10^5 syngeneic MCA205 fibrosarcoma cells) in one flank while an antigenically unrelated cancer (3×10^5 syngeneic TC1 lung carcinoma cells) was implanted into the contralateral flank.
Statistical analyses. For tumor size comparison, Student unpaired t test or one-way ANOVA (Holm-Sidak) were performed. All statistical analyses were performed using GraphPad Prism version 6 for Windows (GraphPad Software, La Jolla, Calif., USA). Differences were considered significant when p value<0.05.

The test system of test [4] is MCA205 fibrosarcoma cells. Description: Rechallenge of cured mice with the same tumor (MCA205). It is filed as in vivo, C57B1/6 mice. The following applies: mice cured from MCA205 following MTX+ICIs+Spd treatment (FIG. 4G). How it is done:
as §1

The test system of test [5] is immune infiltrate of MCA205 tumors. Description: Immunophenotyping of the tumor immune infiltrate by flow cytometry. The format is in vivo, C57B1/6 mice. The conditions noted are these: data not shown. On the procedure: 3 or 11 days post-chemotherapy (d3 or d11), mice were euthanized and the tumors were withdrawn and placed in gentleMACS C tubes (ref 130-096-334 from Miltenyi BiotecTM) previously filled with 1 ml of DMEM or RPMI medium, and immediately put on ice. […] Then, cells were stained with a live dead dye (ref L34959 from ThermoFisher ScientificTM) and an FCblock receptor targeting antibody. For the surface stainings, several anti-mouse fluorochrome-coupled antibodies were employed, that were for 1) myeloid cells “staining 1”: anti-CD45 APC-Fire750 (clone 30E-11, ref 130154 BiolegendTM), anti-Ly-6G PE (clone 1A8, ref 551461 BDTM), anti-Ly-6C FITC (clone AL-21, ref 553104, BDTM), anti-CD11b V450 (clone M1/70, ref 560455 BDTM), anti-CD11c PE-Cy7 (clone HL3, ref 558470 BDTM), anti-CD80 PerCP-Cy5.5 (16-10A1, ref 104722 BiolegendTM), and anti-MHC-II APC (clone M5/114.15.2, ref 107614 BiolegendTM) 2) T-cells “staining 2”: anti-CD3 APC (clone 17A2, ref 17-0032-82 eBioscienceTM), anti-CD8 PE (clone 53-6.7, ref 553032 BDTM), anti-CD4 PerCP-Cy5.5 (clone RM4-5, ref 45-0042-82 eBioscienceTM), anti-CD25 PE-Cy7 (clone PC61.5, ref 25-0251-82 InvitrogenTM), anti-ICOS BV421 (clone 7E.17G9, ref 564070 BDTM) and anti-PD-1 APC-Fire750 (clone 29F.1Al2, ref 135240 BiolegendTM) 3) PD-L1 expressing-cells “staining 4”: anti-CD45 AlexaFluor647 (clone 30E-11, ref 103-124 BiolegendTM), anti-PD-L1 BV421 (clone MIHS, ref 564716 BDTM) and anti-PD-L2 PE-Dazzle594 (clone TY25, ref 107215 BiolegendTM) 4) NKT cells “staining 5”: anti-CD3 FITC (clone 17A2, ref 11-00-32-82 eBioscienceTM) and anti-NK1.1 PerCP-Cy5.5 (clone PK136, ref 551114 BDTM). After the fixation and permeabilization of the cells (thanks to the Cytofix/Cytoperm kit, ref 554714 BDTM for stainings 1, 3, 4 and 5; and with the Foxp3/Transcription Factor kit, ref 00-5523-00 eBioscienceTM for staining 2), intracellular stainings were performed using for “staining 2”: anti-FoxP3 FITC (clone FJK-16s, ref 11-5773-82 eBioscienceTM) and for “staining 3”: anti-IFNg APC (clone XMG1.2, ref 505-810 BiolegendTM), anti-TNFα APC-Cy7 (clone MP6-XT22, ref 506344 BiolegendTM) and anti-IL-2 PE-Dazzle 594 (clone JES6-5H4, ref 503-840 BiolegendTM). Finally, cells were resuspended in FACS buffer and analyzed on a flow cytometer BD LSR II.
(In flow cytometry, cells or beads pass a laser one at a time.)

With `CC1=NN(c2ccc(C(=O)O)cc2)C(=O)/C1=C\c1ccc(-c2cc(C)c(C)cc2[N+](=O)[O-])o1` [C646], the “Efficacy of anticancer chemotherapy with immunogenic cell death (ICD) inducers” value (“Efficacy of anticancer chemotherapy” below) in test [1] is “able to improve the efficacy”.

In the test on MCA205 fibrosarcoma [2] (OXA+PD-1 blockade), `O=C1[O][Pt]2([NH][C@@H]3CCCC[C@H]3[NH]2)[O]C1=O` [OXA, [(1R,2R.)-cyclohexane-1,2-diamine](ethanedioato-O,O′)platinum(II)] gave a Cure rate of 40%.

As for `O=C(O)C[C@]1(O)C[C@H](CCCCCCc2ccc(Cl)cc2Cl)OC1=O` [SB2049901, (3R,5S)-re1-5-[6-(2,4-Dichlorophenyl)hexyl]tetrahydro-3-hydroxy-2-oxo-3-furanacetic acid], in test [1], the “Efficacy of anticancer chemotherapy” value is recorded as “able to improve the efficacy”.

Consider `NCCCCNCCCN` [spermidine, H2N—(CH2)3-NH(CH2)4-NH2], for which, in the test on MCA205 fibrosarcoma [2] (CRM added to OXA+PD-1 blockade), the Cure rate is 70% and the Cured mice is 7 out of 10. In the test with MCA205 fibrosarcoma [2] (figure legend FIG. 7), the “Efficacy of OXA and anti-PD-1 combination when the CRM is added” value is “further enhanced”. The “Tumor formation by TC1 cancer cells injected into the opposite flank” value with TC1 lung carcinoma cells is “yielded tumors”. For the same molecule, the “Evidence of local immunostimulation” value with whole MCA205 tumors was “failed to yield convincing evidence”. In addition, the “Efficacy of anticancer chemotherapy” value in test [1] is recorded as “able to improve the efficacy”. In addition, the Tumor-free mice in the test with MCA205 fibrosarcoma [3] (MTX pre-treatment associated with the CRM, then CTLA-4/PD-1-blocking antibodies (FIG. 6)) is 8 out of 10. The “Efficacy of MTX + ICIs (anti-PD-1 plus anti-CTLA-4) chemo-immunotherapy when the CRM is added” value in the test with MCA205 fibrosarcoma [3] is listed as “significantly improves tumor outcome”. Besides, in the test on MCA205 fibrosarcoma [3] (listed as Spd), the “Efficacy of MTX + ICIs (anti-PD-1 plus anti-CTLA-4) chemo-immunotherapy when the CRM is added” value was “further enhanced”. Also, in the test on MCA205 fibrosarcoma [3] (pretreated with the CRM alone (without MTX), data not shown), the “Response to CTLA-4/PD-1-blockade” value is “did not respond”. Also, in the test on MCA205 fibrosarcoma [3] (spermidine i.p. 3 times per week + MTX chemotherapy + dual CTLA-4/PD-1-targeting immunotherapy), the “Cure of established tumor” value is listed as 7 out of 9. The “Outgrowth of reinjected MCA205 cancer cells” value in test [4] is “did not led to the outgrowth”. In addition, the “Increase in the density of total CD3+ and CD8+ T cell infiltrate” value in test [5] (combined with MTX) is “neither HC nor spermidine”. Moreover, the Myeloid infiltrate result in test [5] (day 3 post-chemotherapy (MTX)) is recorded as “no major increments”. Moreover, the “Macrophage subpopulation with an M1 phenotype (Ly6G-F4/80+CD11c-CD11b+CD38+)” value in test [5] (day 11 post-MTX) is “expansion”.
